How the values were obtained:
[1] = test system: Canine Cardiac Atrioventricular Node Function; experiment: Test of the Suppression of Canine Cardiac Atrioventricular Node Function; assay type: in vivo; details: anesthetized male beagle dogs, 0.1 mg/kg intravenously, 1 hour after administration (compound A), 30 minutes (Verapamil), vs control group; for change in AH intervals in the His bundle electrocardiograms during high-frequent stimulation by pacing: pacing the right atrium at intervals of 400 msec and 300 msec
Excerpt: Male beagle dogs were employed in this test. Under halothane anesthesia, an electrode catheter was inserted from the left femoral artery and the front end thereof was placed in the non-coronary cusp of His bundle to thereby record the His bundle electrocardiogram. A pacing catheter was inserted via a sheath introducer placed in the right femoral vein and the front end thereof was fixed to the inner wall of the right atrium. Electrodes for recording body surface electrocardiogram were attached to the four limbs and thus the second-lead electrocardiogram was recorded. A drug was administered via the sheath introducer placed in the left femoral vein.
Verapamil, which was used as a comparative compound, was intravenously administered in a dose of 0.1 mg/kg. A group to which a vehicle was administered was referred to as the control group.
After the stabilization period following the surgical operation, AH intervals in the His bundle electrocardiograms were measured in the sinus rhythm and during pacing the right atrium at intervals of 400 msec and 300 msec. […] In the case of the comparative drug Verapamil, the AH intervals in the His bundle electrocardiogram as described above were measured before the administration and 30 minutes after the administration. The effect of a compound was expressed in the change in the AH intervals in the individual His bundle electrocardiograms in the sinus rhythm and during pacing the right atrium at intervals of 400 msec and 300 msec from the value before the administration of the drug and the data were compared with the data of the control group (Student's t-test) at a significant level of 5%. The term “AH interval in His bundle electrocardiogram” means the period of time wherein an electrical excitation generated at the atrium passes the atrioventricular node and arrives at His bundle.

[2] = test system: Anesthetized Swine Ventricular Rate; experiment: Test of Measurement of Anesthetized Swine Ventricular Rate; assay type: in vivo, pigs (Landrace/White F1)
Description: Male pigs (Landrace/White F1) were employed in this test. Under pentbarbital anesthesia, a thoracotomy was performed at the fourth right intercostal space and an electrode for electrical stimulation was attached to the right atrial surface thus exposed. Electrodes for recording body surface electrocardiogram were attached to the four limbs and thus the second-lead electrocardiogram was recorded. A catheter for drug administration was placed in the right femoral vein. Compound A was intravenously administered in a dose of 0.3 mg/kg. Atenolol, which was a β-blocker used as a comparative compound, was intravenously administered in a dose of 1 mg/kg. A group to which a vehicle was administered was referred to as the control group. A 50 Hz burst stimulation was applied to the right atrium via the electrode for electrical stimulation and the ventricular rate per minute was measured as R-waves in the body surface electrocardiogram. Thirty minutes after the administration of compound A or the comparative drug, a 50 Hz burst stimulation was applied again to the right atrium and then the R-waves per minute in the body surface electrocardiogram were measured.

| SMILES | change in AH intervals in the His bundle electrocardiograms during high-frequent stimulation by pacing [1] | change in AH interval in the His bundle electrocardiogram in the sinus rhythm [1] | change in ventricular rate (R waves per minute) during the 50 Hz burst stimulation ([2]; anesthetized male pigs, 0.3 mg/kg intravenously, 30 minutes after administration, 50 Hz burst stimulation of right atrium, vs control group) | efficacy relative to Atenolol in controlling the ventricular rate ([2]; anesthetized pigs, compound A 0.3 mg/kg vs Atenolol 1 mg/kg intravenously) |
| --- | --- | --- | --- | --- |
| COc1cc2c(cc1OC)CC(=O)N(CCCN(C)C[C@H]1Cc3cc(OC)c(OC)cc31)CC2 [Ivabradine] | no significant difference at a significant level of 5% was observed | do not suppress the atrioventricular node function in the sinus rhythm | – | – |
| COc1ccc(CCN(C)CCCC(C#N)(c2ccc(OC)c(OC)c2)C(C)C)cc1OC (centres unmarked) [Verapamil] | significantly prolonged | significantly prolonged | – | – |
| COc1cc2c(cc1OC)CN(C(=O)[C@@H]1CCCN(CCNC(=O)c3ccc(F)cc3)C1)CC2 [compound A, (−)-N-{2-[(R)-3-(6,7-dimethoxy-1,2,3,4-tetrahydroisoquinoline-2-carbonyl)piperidino]ethyl}-4-fluorobenzamide monophosphate] | prolonged at a significant level of 1% | no effect | significantly decreases | stronger by thrice or more |

Source: patent publication US20090247572A1, “AGENT FOR TREATING ATRIAL FIBRILLATION” (priority 2005, published 2009)
